Laboratory results as given in patent publication US11998008B2, “Pesticides and methods of controlling pests” (The State of Israel, Ministry of Agriculture & Rural …, priority 2017, dated 2024).
“Also recorded” adds a separate entry of the source.

Experiments:
S. rolfsii = assay: Fungicidal activity assay on PDA in sealed Petri dish (growth inhibition and mortality); format: cell-based, Sclerotinia rolfsii; conditions: S. rolfsii; for I - Inhibition class: 2 days; for M - Mortality, minimal concentration that killed the fungus / MFC: NA + number = still viable in the highest concentration tested (given as >); for I - Inhibition, minimal concentration that inhibited the growth: concentration to which the class above belongs; for MFC: Agroathelia rolfsii, read-out: M - Mortality, minimal concentration that killed the fungus
Description: (§1) Each compound was placed on a disconnected cover from an Eppendorf tube that was located in the middle of the Petri dish and a hyphae-containing plug of each test fungus was added to the culture plate. In exemplary procedures, the tested compounds trans-2-heptenal, trans-2-octenal were tested in comparison with octanal, trans-2-octen-1-ol, methyl trans-2-octenoate, trans-3-octen-2-one and 3-pentenenitrile. In addition, cyclic ketones as 2-cyclopenten-1-one, 2-cyclohexen-1-one and α-tetralone were also examined. Then, the culture plate was sealed with parafilm and incubated at room-temperature for 2 days, after which the growth of the test fungi in those dishes was compared with those in the test compound-free control dishes. At the end of the assay, the viability of each test fungus was evaluated by transferring inoculum plugs to fresh PDA plates and observing the growth that developed within the next 2 days. The test fungi used in this study included but were not limited to Alternaria alternata, Botrytis cinerea, Sclerotinia rolfsii, Penicillium digitatum, Fusarium oxysporum f. sp. radicis-cucumerinum and Rhizoctonia solani.

B. cinerea = assay: as above; format: cell-based, Botrytis cinerea; conditions: for I - Inhibition class: 2 days; for I - Inhibition, minimal concentration that inhibited the growth: concentration to which the class above belongs
Description: as §1, with “In exemplary procedures, the fungicidial activity of the compounds listed in Table 2 were examined by activity assays as follow: Petri dishes, 90 mm in diameter, with air volume of 80 mL, contained 10-12 mL of growth medium comprising potato dextrose agar (PDA) (Acumedia, Lansing, Michigan, USA) amended with tetracycline at 12 μg/mL. Each” for “Each”

[1] = test system: Meloidogyne javanica second stage juveniles (J2s); assay: Nematocidal activity: viability of J2 nematodes after 2 days exposure to the compound in a sealed box; format: in vivo
Description: In exemplary procedures, the sedentary root-knot nematode from the genus Meloidogyne javanica second stage juveniles (J2s) was propagated on greenhouse-grown nematode-susceptible tomato Lycopersicon esculentum cv. ‘Avigail 870’ (Hazera, Shikmim, Israel), and nematode eggs were bulk-extracted from the roots with 0.05% (v/v) sodium hypochlorite (NaOCl) followed by sucrose flotation and successive sievings through nylon filters of 300, 120, 60, and 30 μm mesh sizes (AD Sinun Technologies, Petach Tikvah, Israel). For hatching J2, extracted eggs were placed on 30-μm sieves (AD Sinun Technologies) in 0.01 M MES (2-(N-morpholino) ethanesulfonic acid hydrate) pH 6.5 buffer under aseptic conditions in darkness for 5 days, and hatching J2s were collected for further experiments.
Seven vials, each containing 300 J2 nematodes with 0.5 mL of 0.01 M 2-(N-morpholino)ethanesulfonic acid (MES) buffer, were exposed to cyclic ketone compounds in order to examine their nematocidal activity and reduction in viability. In addition, a humid environment in a sealed 1 L box was maintained by addition 5 ml of distilled H2O to a 50-mm Petri plate. The box was sealed after compound addition into each 50-mm Petri plate together with 5-250 mg of perlite particles and incubated for 2 days in the dark at 25±1° C. C5 and C6 saturated and α,β-unsaturated cyclic ketones were tested for their nematocidal activity. The J2 nematodes viability was examined following exposure to the cyclic ketone compounds, by a straightforward small-scale nematode extraction method, based on the traditional Baermann funnel method. Briefly, all nematode suspensions were loaded onto 30-μm (AD Sinun Technologies) filters (1.0-1.5 cm height, 1.1-2.0 cm^3 internal area), and the nematodes were washed twice with 300 μL of 0.01 M MES buffer in order to remove any residues. Then, filters holding nematodes were placed into 15 mL Falcon centrifuge tubes, each containing 900 μL of 0.01 M of MES buffer. These filters allow active passage of only living J2s while paralyzed or dead nematodes remain on top of the filter. The whole apparatus including the filter holding the nematodes and the Falcon tubes were placed in the dark for 3 h at 25±1° C. Then, the filters were removed and the viable nematodes, which were able to actively cross the filter toward the 0.01 M of MES buffer, were collected from the Falcon tube and counted using a Nematode Counting Slide (Chalex LLC, Portland, OR, USA) and a SV11 stereomicroscope (Zeiss, Jena, Germany).
Data were analyzed by the JMP 12 software package (SAS Inc., Cary, NC, USA). Mean numbers of viable J2s under various conditions were subjected to one-way analysis of variance (ANOVA), followed by the Tukey-Kramer multiple comparison test, with significance set at P<0.05.

A. alternata = assay: Fungicidal activity assay on PDA in sealed Petri dish (growth inhibition and mortality); format: cell-based, Alternaria alternata; conditions: for I - Inhibition class: 2 days; for I - Inhibition, minimal concentration that inhibited the growth: concentration to which the class above belongs
Description: as §1, with “In exemplary procedures, the fungicidial activity of the compounds listed in Table 2 were examined by activity assays as follow: Petri dishes, 90 mm in diameter, with air volume of 80 mL, contained 10-12 mL of growth medium comprising potato dextrose agar (PDA) (Acumedia, Lansing, Michigan, USA) amended with tetracycline at 12 μg/mL. Each” for “Each”

P. digitatum = assay: as above; format: cell-based, Penicillium digitatum; conditions: for I - Inhibition class: 2 days; for I - Inhibition, minimal concentration that inhibited the growth: concentration to which the class above belongs
Description: as §1, with “In exemplary procedures, the fungicidial activity of the compounds listed in Table 2 were examined by activity assays as follow: Petri dishes, 90 mm in diameter, with air volume of 80 mL, contained 10-12 mL of growth medium comprising potato dextrose agar (PDA) (Acumedia, Lansing, Michigan, USA) amended with tetracycline at 12 μg/mL. Each” for “Each”

[2] = test system: Meloidogyne javanica second stage juveniles (J2s); assay: Nematocidal activity: viability of J2 nematodes after 2 days exposure to the compound in a sealed box; conditions: in vivo
test fungi = assay: Fungicidal activity assay on PDA, summaries over the test fungi; format: cell-based; conditions: comparison within the series
Description: as §1, with “In exemplary procedures, the fungicidial activity of the compounds listed in Table 2 were examined by activity assays as follow: Petri dishes, 90 mm in diameter, with air volume of 80 mL, contained 10-12 mL of growth medium comprising potato dextrose agar (PDA) (Acumedia, Lansing, Michigan, USA) amended with tetracycline at 12 μg/mL. Each” for “Each”

[3] = test system: F. oxysporum f. sp. radicis-cucumerium; assay: Fungicidal activity assay on PDA in sealed Petri dish (growth inhibition and mortality); format: cell-based, Fusarium oxysporum f. sp. radicis-cucumerinum; conditions: for MFC: Fusarium oxysporum, read-out: M - Mortality, minimal concentration that killed the fungus; for MFC / M - Mortality, minimal concentration that killed the fungus: NA + number = still viable in the highest concentration tested (given as >); for I - Inhibition class: 2 days; for I - Inhibition, minimal concentration that inhibited the growth: concentration to which the class above belongs
Description: as §1

R. solani = assay: microbe, parasite or virus in culture; format: cell-based; conditions: R. solani; for MFC: Rhizoctonia solani, read-out: M - Mortality, minimal concentration that killed the fungus; for MFC / M - Mortality, minimal concentration that killed the fungus: NA + number = still viable in the highest concentration tested (given as >); for I - Inhibition class: 2 days; for I - Inhibition, minimal concentration that inhibited the growth: concentration to which the class above belongs
Description: as §1

Tomato plants = assay: Phytotoxicity on tomato plants in soil, compound on perlite particles; format: in vivo; conditions: one day after treatment
Description: In exemplary procedures, the phytotixicity of trans-2-octenal and 2-cyclopenten-1-one was examined in triplicates for each concentration: 250, 1,000, 4,000, and 20,000 ppm compared to control.

[4] = NA + number = still viable in the highest concentration tested (given as >)
[5] = at the concentration given, 2 days incubation

Row | Compound | I - Inhibition class (S. rolfsii) | M - Mortality, minimal concentration that killed the fungus (S. rolfsii) | I - Inhibition, minimal concentration that inhibited the growth (S. rolfsii) | I - Inhibition class (B. cinerea) | M - Mortality, minimal concentration that killed the fungus (B. cinerea; [4]) | I - Inhibition, minimal concentration that inhibited the growth (B. cinerea) | Activity: reduction in J2s viability relative to non exposed control J2s (class) [1, 5] | I - Inhibition class (A. alternata) | M - Mortality, minimal concentration that killed the fungus (A. alternata; [4]) | I - Inhibition, minimal concentration that inhibited the growth (A. alternata) | I - Inhibition class (P. digitatum) | M - Mortality, minimal concentration that killed the fungus (P. digitatum; [4]) | I - Inhibition, minimal concentration that inhibited the growth (P. digitatum) | Activity: the most effective concentration [2] | fungicidal activity in words (test fungi) | MFC (S. rolfsii) | MFC [3] | MFC (R. solani) | I - Inhibition class [3] | M - Mortality, minimal concentration that killed the fungus [3] | also measured
1 | CC(C)=CCCC(C)=CCCC(C)=CC=O (single isomer, unassigned) [Farnesal mixture of isomers, Farnesal] | MI (Medium inhibition - 76-99% of growth inhibition) | > 125 ppm | 125 ppm | MI (Medium inhibition - 76-99% of growth inhibition) | > 125 ppm | 12.5 ppm | N (<50% reduction in viability) | NI (<50% growth inhibition) | > 125 ppm | 125 ppm | NI (<50% growth inhibition) | > 125 ppm | 125 ppm | N 250 ppm |  |  |  |  |  |  | 
2 | O=C1C=CCC1 [2-cyclopenten-1-one] |  |  |  |  |  |  |  |  |  |  |  |  |  |  | fungicidal activity, to some extent | > 25 µg/mL | > 25 µg/mL | > 25 µg/mL |  |  | phytotoxicity (Tomato plants; 250 ppm): No phytotoxicity; phytotoxicity (Tomato plants; 1,000 ppm): phytotoxic; also recorded: Low phytotoxicity; phytotoxicity (Tomato plants; 4,000 ppm): phytotoxic; also recorded: Medium phytotoxicity; phytotoxicity (Tomato plants; 20,000 ppm): phytotoxic; also recorded: Strong phytotoxicity
3 | O=C1CCCCCC1 [Cycloheptanone] |  |  |  |  |  |  |  |  |  |  |  |  |  |  |  | 2500 µg/mL | > 250 µg/mL | > 250 µg/mL |  |  | MFC (B. cinerea; Botrytis cinerea, NA + number = still viable in the highest concentration tested (given as >), read-out: M - Mortality, minimal concentration that killed the fungus): 1250 µg/mL; nematocidal activity in words ([1]; comparison within the series): nematocidal effects at substantially higher concentrations; MFC (A. alternata; Alternaria alternata, NA + number = still viable in the highest concentration tested (given as >), read-out: M - Mortality, minimal concentration that killed the fungus): 1250 µg/mL; MFC (P. digitatum; Penicillium digitatum, NA + number = still viable in the highest concentration tested (given as >), read-out: M - Mortality, minimal concentration that killed the fungus): 2500 µg/mL
4 | C/C=C(\C)C=O [Tiglic aldehyde] | MI (Medium inhibition - 76-99% of growth inhibition) | > 25 ppm | 25 ppm |  |  |  | M (76-90% reduction in viability) |  |  |  |  |  |  | M 25 ppm |  |  |  |  | NI (<50% growth inhibition) | > 25 ppm | I - Inhibition, minimal concentration that inhibited the growth [3]: 25 ppm; I - Inhibition class (R. solani): MI (Medium inhibition - 76-99% of growth inhibition); M - Mortality, minimal concentration that killed the fungus (R. solani): > 25 ppm; I - Inhibition, minimal concentration that inhibited the growth (R. solani): 25 ppm
5 | O=C1CCCc2ccccc21 [α-Tetralone] | NI (<50% growth inhibition) | > 25 ppm | 25 ppm |  |  |  |  |  |  |  |  |  |  |  | further reduced fungicidal activity |  |  |  | NI (<50% growth inhibition) | > 25 ppm | Activity: the most effective concentration ([1]; concentration to which the class of the same cell belongs): 25 ppm; I - Inhibition, minimal concentration that inhibited the growth [3]: 25 ppm; I - Inhibition class (R. solani): NI (<50% growth inhibition); M - Mortality, minimal concentration that killed the fungus (R. solani): > 25 ppm; I - Inhibition, minimal concentration that inhibited the growth (R. solani): 25 ppm
6 | CC(=O)/C=C/C1C(C)=CCCC1(C)C (stereo not drawn) [α-ionone] | LI (Low inhibition - 51-75% of growth inhibition compared to control.) | > 1250 ppm | 1250 ppm | LI (Low inhibition - 51-75% of growth inhibition compared to control.) | > 1250 ppm | 1250 ppm |  | LI (Low inhibition - 51-75% of growth inhibition compared to control.) | > 1250 ppm | 1250 ppm | NI (<50% growth inhibition) | > 1250 ppm | 1250 ppm | N 250 ppm |  |  |  |  |  |  | Activity: reduction in J2s viability relative to non exposed control J2s (class) ([1]; in vivo): N 250 (key: S: >90% reduction in viability; M: 76-90% reduction in viability; L: 51-75% reduction in viability; N: <50% reduction in viability)
